IC50 data for 41 molecules are collected here from US12116343B2, “Inhibitors of APOL1 and methods of using same” (Vertex Pharmaceuticals Incorporated, priority 2020, dated 2024).

Molecules are shown by their SMILES. pIC50: −log10 of the molar value.

This assay has as its target T1, APOL1 G1 Protein (Homo sapiens, UniProt O14791, I384M/S342G).
T1 sequence (O14791 28-398 S342G/I384M): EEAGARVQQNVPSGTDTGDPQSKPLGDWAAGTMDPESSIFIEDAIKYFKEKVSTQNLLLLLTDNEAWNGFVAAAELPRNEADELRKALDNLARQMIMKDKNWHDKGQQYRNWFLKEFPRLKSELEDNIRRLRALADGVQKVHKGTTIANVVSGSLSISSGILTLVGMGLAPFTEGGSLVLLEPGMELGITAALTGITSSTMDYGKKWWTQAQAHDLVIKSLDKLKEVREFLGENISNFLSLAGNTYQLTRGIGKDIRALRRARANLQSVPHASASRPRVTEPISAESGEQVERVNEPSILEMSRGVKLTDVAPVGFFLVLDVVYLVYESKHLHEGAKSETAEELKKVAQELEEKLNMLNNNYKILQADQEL
As to the kind of experiment: Trypanosoma brucei brucei lysis assay using APOL1 recombinant protein (AlamarBlue viability). The format is cell-based. The conditions noted are these: Trypanosoma brucei brucei lysis, recombinant APOL1, AlamarBlue; read-out: Trypanosoma Assay (IC50). An excerpt:
Trypanosoma brucei brucei is a blood stream parasite to which human, gorillas and baboon are immune due to the presence of the APOL1 protein in their HDL particles. The protein is uptaken by the parasite via the TbHpHb receptor located in its flagellar pocket and is bonded by the Hpr protein contained in the HDL particles which triggers the receptor endocytosis by the parasite.
Following endocytosis, the formed vesicle containing the HDL particle matures from early to late endosome, and subsequently to lysosome. The concomitant pH change in the lumen of the vesicle triggers the insertion of the APOL1 protein into the membrane of the late endosome/lysosome and hereby triggers lysosomal membrane premeabilisation and as a further downstream event, trypanosome lysis. Trypanosoma brucei brucei is sensitive to lysis by all three APOL1 variants (G0, G1, and G2).
The Trypanosoma brucei brucei lysis assay is a lysis assay of the parasite using recombinant APOL1 protein variant followed by a fluorescent detection method of viability by the addition of AlamarBlue reagent to the assay well, a general metabolic redox indicator (AlamarBlue assay).
Briefly, the AlamarBlue active compound, the resazurin, a blue, water soluble, non-toxic and cell permeable molecule, which can be followed by absorbance, is reduced by various metabolic pathways into resorufin, a red compound which can be followed by either absorbance or fluorescence. The assay allows the calculation of the percent viability (percent of living Trypanosomes remaining in each well) at the end of a lysis relative to the untreated condition by interpolation of fluorescent values (FLU) on a standard curve with a known amount of seeded trypanosome/well.
Trypanosoma brucei brucei (ATCC, Cat. No. PRA-382) • Lister 427 VSG 221 bloodstream form.
Thaw/Expansion Media (ATCC Medium 2834 Modified HMI-9 Medium)
Assay Media (No Phenol Red/No FBS): Make on Day of Use
Hypoxanthine Stock (100×)-9 (10×)
Equipment • El-Clip Tip pipette 12 channel adjustable 2-125 μL, Cat. No. 4672070BT • ThermoFisher MultiDrop 384, Cat. No. 5840300 • Multidrop • Agilent Bravo, Cat. No. G5409A • Bravo • SpectraMax M5
Assay Ready Plates (ARPs) • ARPs comes in two formats: • […] final top concentration with a 2.5 fold dilution down. • […] final top concentration with a 3 fold dilution down. • Both have a 10 point Dose response. • 0.1% DMSO final in the Black Assay Plate. • Compounds are diluted 1000 fold in the Black Assay Plate. • Each plate is designed for 14 compounds in duplicate. • In the final Black Assay Plate:
Trypanosoma brucei brucei Culture
Step 2, Day 4 • Centrifuge at 800×g for 5 minutes at room temperature. • Resuspend in 1 mL media. • Make a 1:25 fold dilution (10 μL/240 μL media). • Count on a hemocytometer (after adding parasites). • Let sit for 1-2 minutes for the parasites to settle. • Count should be approximately 100 viable motile parasites/16 grid or approximately 25×10^6 parasites/flask. • Passage the parasites by adding 1×10^6 parasites/T75 flask in 20 mL media. • Passage the parasites by adding 2.33×10^6 parasites/T175 flask in 46.6 mL media. • For every T75 flask should make enough for approximately 1.5×384 well assay plates. • For every T175 flask should make enough for approximately 3.8×384 well assay plates.
Step 3, Day 6 • Centrifuge at 800×g for 5 minutes. • Resuspend in 3 mL assay media (No phenol red, no FBS) per 75 starting flask. • Resuspend in 7 mL assay media (No phenol red, no FBS) per 175 flask • Make a 1:25 fold dilution. • Count by hemocytometer. • Every T75 flask set up should have approximately 75×10^6 parasites/flask (verify doubling time=8.7 hrs±1 hr). • Every T175 flask set up should have approximately 175×10^6 parasites/flask (verify doubling time=8.7 hrs±1 hr). • Require 46×10^6 parasites per 384 well plate (at 120,000 parasites per well). Protocol B […]
Consider `O=C([C@H]1C[C@H](c2c(-c3ccc(F)cc3)[nH]c3c(F)cc(F)cc32)C1)N1CCC[C@@H](CO)C1` [Compound 109], for which the pIC50 was less than 6.00.

For the molecule `CN(C)C[C@@H]1CCN(C(=O)[C@H]2C[C@H](c3c(-c4ccc(F)cc4)[nH]c4c(F)cc(F)cc43)C2)C[C@H]1O` [Compound 110], the negative-log IC50 (pIC50) was 6.00 to 6.60.

Consider `CCC1(O)CN(C(=O)[C@H]2C[C@H](c3c(-c4ccc(F)cc4)[nH]c4c(F)cc(F)cc43)C2)C1` [Compound 112], for which the pIC50 was less than 6.00.

For the molecule `O=C([C@H]1C[C@H](c2c(-c3ccc(F)cc3)[nH]c3c(F)cc(F)cc32)C1)N1CCOCC1CCO` (some centres unmarked) [Compound 113], the negative logarithm of the IC50 (pIC50) is less than 6.00.

As for `CC1(C)CN(C(=O)[C@H]2C[C@H](c3c(-c4ccc(F)cc4)[nH]c4c(F)cc(F)cc43)C2)CCC1O` (some centres unmarked) [Compound 114], the pIC50 is less than 6.00.

`O=C([C@H]1C[C@H](c2c(-c3ccc(F)cc3)[nH]c3c(F)cc(F)cc32)C1)N1CCOC(O)C1` (some centres unmarked) [Compound 115]: the pIC50 was more than 6.60.

Consider `C[C@H]1CN(C(=O)[C@H]2C[C@H](c3c(-c4ccc(F)cc4)[nH]c4c(F)cc(F)cc43)C2)CC[C@@H]1O` [Compound 116], for which the negative logarithm of the IC50 (pIC50) was less than 6.00.

As to `O=C([C@H]1C[C@H](c2c(-c3ccc(F)cc3)[nH]c3c(F)cc(F)cc32)C1)N(CCO)CCCO` [Compound 117], the pIC50 is 6.00 to 6.60.

Take `O=C([C@H]1C[C@H](c2c(-c3ccc(F)cc3)[nH]c3c(F)cc(F)cc32)C1)N1CCO[C@H](CO)C1` [Compound 118]: the pIC50 was less than 6.00.

As to `CCC(O)(CCCO)CNC(=O)[C@H]1C[C@H](c2c(-c3ccc(F)cc3)[nH]c3c(F)cc(F)cc32)C1` (some centres unmarked) [Compound 119], the negative-log IC50 (pIC50) was less than 6.00.

As to `CN(CC1(CO)CCOCC1)C(=O)[C@H]1C[C@H](c2c(-c3ccc(F)cc3)[nH]c3c(F)cc(F)cc32)C1` [Compound 120], the negative logarithm of the IC50 (pIC50) is less than 6.00.

As to `O=C([C@H]1C[C@H](c2c(-c3ccc(F)cc3)[nH]c3c(F)cc(F)cc32)C1)N(CCOCCO)C1CCC1` [Compound 121], the pIC50 is less than 6.00.

`CC(C)N(CCO)C(=O)[C@H]1C[C@H](c2c(-c3ccc(F)cc3)[nH]c3c(F)cc(F)cc32)C1` [Compound 123]: the pIC50 is 6.00 to 6.60.

For `CCN(CCO)C(=O)[C@H]1C[C@H](c2c(-c3ccc(F)cc3)[nH]c3c(F)cc(F)cc32)C1` [Compound 124], the negative-log IC50 (pIC50) is 6.00 to 6.60.

For the molecule `O=C(NCCOCCO)[C@H]1C[C@H](c2c(-c3ccc(F)cc3)[nH]c3c(F)cc(F)cc32)C1` [Compound 125], the pIC50 is more than 6.60.

For the molecule `O=C([C@H]1C[C@H](c2c(-c3ccc(F)cc3)[nH]c3c(F)cc(F)cc32)C1)N1CCN(CCO)CC1` [Compound 126], the pIC50 is less than 6.00.

For the molecule `O=C([C@H]1C[C@H](c2c(-c3ccc(F)cc3)[nH]c3c(F)cc(F)cc32)C1)N1CCCC(CCO)C1` (some centres unmarked) [Compound 128], the pIC50 is less than 6.00.

As for `CC1(C)CN(C(=O)[C@H]2C[C@H](c3c(-c4ccc(F)cc4)[nH]c4c(F)cc(F)cc43)C2)CCN1C(=O)[C@H]1C[C@@](C)(O)C1` [Compound 130], the pIC50 was less than 6.00.

For `CC(O)C1CCCN(C(=O)[C@H]2C[C@H](c3c(-c4ccc(F)cc4)[nH]c4c(F)cc(F)cc43)C2)C1` (some centres unmarked) [Compound 131], the pIC50 is less than 6.00.

With `O=C([C@H]1C[C@H](c2c(-c3ccc(F)cc3)[nH]c3c(F)cc(F)cc32)C1)N(CCO)c1cnccn1` [Compound 132], the pIC50 was less than 6.00.

As to `NC(=O)C1CCN(C(=O)[C@H]2C[C@H](c3c(-c4ccc(F)cc4)[nH]c4c(F)cc(F)cc43)C2)CC1` [Compound 133], the pIC50 is less than 6.00.

For the molecule `O=C([C@H]1C[C@H](c2c(-c3ccc(F)cc3)[nH]c3c(F)cc(F)cc32)C1)N1CCC(CCO)CC1` [Compound 134], the pIC50 was less than 6.00.

For `NC(=O)[C@@H]1CCN(C(=O)[C@H]2C[C@H](c3c(-c4ccc(F)cc4)[nH]c4c(F)cc(F)cc43)C2)C1` [Compound 135], the negative-log IC50 (pIC50) was less than 6.00.

Turning to `O=C([C@H]1C[C@H](c2c(-c3ccc(F)cc3)[nH]c3c(F)cc(F)cc32)C1)N1CC(OCC2CCCO2)C1` (some centres unmarked) [Compound 136], the pIC50 is less than 6.00.

As to `O=C([C@H]1C[C@H](c2c(-c3ccc(F)cc3)[nH]c3c(F)cc(F)cc32)C1)N1CC2(CC(O)C2)C1` [Compound 137], the pIC50 is less than 6.00.

Regarding `O=C([C@H]1C[C@H](c2c(-c3ccc(F)cc3)[nH]c3c(F)cc(F)cc32)C1)N1CC(O)C(CO)C1` (some centres unmarked) [Compound 138], the pIC50 is 6.00 to 6.60.

As to `O=C1CC[C@H](NC(=O)[C@H]2C[C@H](c3c(-c4ccc(F)cc4)[nH]c4c(F)cc(F)cc43)C2)C1` [Compound 139], the pIC50 is 6.00 to 6.60.

For the molecule `O=C([C@H]1C[C@H](c2c(-c3ccc(F)cc3)[nH]c3c(F)cc(F)cc32)C1)N1CC[C@H](CO)C1` [Compound 140], the pIC50 was less than 6.00.

For the molecule `CC(C)[C@@H](CO)NC(=O)[C@H]1C[C@H](c2c(-c3ccc(F)cc3)[nH]c3c(F)cc(F)cc32)C1` [Compound 141], the pIC50 is 6.00 to 6.60.

`C[C@H](CO)N(C)C(=O)[C@H]1C[C@H](c2c(-c3ccc(F)cc3)[nH]c3c(F)cc(F)cc32)C1` [Compound 142]: the negative-log IC50 (pIC50) was more than 6.60.

In the case of `O=C(NCC1(O)CCC1)[C@H]1C[C@H](c2c(-c3ccc(F)cc3)[nH]c3c(F)cc(F)cc32)C1` [Compound 143], the negative logarithm of the IC50 (pIC50) is less than 6.00.

Consider `NC(=O)[C@H](CO)NC(=O)[C@H]1C[C@H](c2c(-c3ccc(F)cc3)[nH]c3c(F)cc(F)cc32)C1` [Compound 144], for which the pIC50 is 6.00 to 6.60.

With `O=C([C@H]1C[C@H](c2c(-c3ccc(F)cc3)[nH]c3c(F)cc(F)cc32)C1)N1CCCCC1CO` (some centres unmarked) [Compound 145], the pIC50 was 6.00 to 6.60.

Consider `O=C([C@H]1C[C@H](c2c(-c3ccc(F)cc3)[nH]c3c(F)cc(F)cc32)C1)N1CCCC[C@H]1CO` [Compound 146], for which the negative-log IC50 (pIC50) is 6.00 to 6.60.

Take `O=C([C@H]1C[C@H](c2c(-c3ccc(F)cc3)[nH]c3c(F)cc(F)cc32)C1)N1CCCC(CO)C1` (some centres unmarked) [Compound 147]: the negative-log IC50 (pIC50) was less than 6.00.

As to `O=C([C@H]1C[C@H](c2c(-c3ccc(F)cc3)[nH]c3c(F)cc(F)cc32)C1)N1CCOC(CO)C1` (some centres unmarked) [Compound 148], the pIC50 was less than 6.00.

With `O=C([C@H]1C[C@H](c2c(-c3ccc(F)cc3)[nH]c3c(F)cc(F)cc32)C1)N1CCC[C@@H](O)C1` [Compound 149], the pIC50 is more than 6.60.

In the case of `O=C([C@H]1C[C@H](c2c(-c3ccc(F)cc3)[nH]c3c(F)cc(F)cc32)C1)N1CCCC(O)C1` (some centres unmarked) [Compound 150], the negative-log IC50 (pIC50) was 6.00 to 6.60.

For `NC(=O)[C@H]1CCCN1C(=O)[C@H]1C[C@H](c2c(-c3ccc(F)cc3)[nH]c3c(F)cc(F)cc32)C1` [Compound 153], the pIC50 was more than 6.60.

`NC(=O)[C@H]1CCN(C(=O)[C@H]2C[C@H](c3c(-c4ccc(F)cc4)[nH]c4c(F)cc(F)cc43)C2)C1` [Compound 154]: the negative-log IC50 (pIC50) is less than 6.00.

On to `C[C@@H](O)[C@H](CO)NC(=O)[C@H]1C[C@H](c2c(-c3ccc(F)cc3)[nH]c3c(F)cc(F)cc32)C1` [Compound 155], for which the negative logarithm of the IC50 (pIC50) is 6.00 to 6.60.
